Here are results for one compound from publication doi:10.1101/2025.08.13.670152v1 (biorxiv, 2025).

Each structure is given as a SMILES string.

The target in the assay is CHI3L1/galectin-3 (CHI3L1-His and galectin-3-GST) (Homo sapiens, UniProt P36222). Briefly: AlphaLISA, inhibition of CHI3L1/galectin-3 interaction. It counts as biochemical. Particulars: read-out: % inhibition at 100 μM. Background: In Alpha technology, singlet oxygen from a donor bead excites a nearby acceptor bead.
Chain of CHI3L1/galectin-3 (CHI3L1-His and galectin-3-GST) (P36222 22-383): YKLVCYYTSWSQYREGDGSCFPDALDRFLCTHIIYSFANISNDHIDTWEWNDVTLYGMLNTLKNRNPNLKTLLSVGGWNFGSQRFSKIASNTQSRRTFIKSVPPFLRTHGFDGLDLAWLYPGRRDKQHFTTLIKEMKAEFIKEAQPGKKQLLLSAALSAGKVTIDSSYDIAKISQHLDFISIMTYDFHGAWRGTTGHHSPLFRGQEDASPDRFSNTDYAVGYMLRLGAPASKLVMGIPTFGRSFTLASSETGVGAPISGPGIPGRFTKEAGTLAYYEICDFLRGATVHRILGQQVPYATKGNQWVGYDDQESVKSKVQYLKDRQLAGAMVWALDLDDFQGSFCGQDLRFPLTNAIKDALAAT
Chain of CHI3L1/galectin-3 (CHI3L1-His and galectin-3-GST) (P17931 2-250 partner): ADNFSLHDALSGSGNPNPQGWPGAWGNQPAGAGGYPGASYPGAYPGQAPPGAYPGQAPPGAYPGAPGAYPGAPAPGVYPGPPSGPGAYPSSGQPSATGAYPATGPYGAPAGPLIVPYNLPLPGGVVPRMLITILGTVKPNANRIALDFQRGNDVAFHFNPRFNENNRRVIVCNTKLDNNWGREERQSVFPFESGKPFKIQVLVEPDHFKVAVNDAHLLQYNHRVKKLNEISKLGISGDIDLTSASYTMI

For the compound `CC(C)c1cccc(-c2ccc3ncn(C)c(=O)c3c2)c1` [3C13], the inhibition (as a rule, the change of the read-out against control, counted positive when it falls) at 100 µM is 27.5 ± 3.1%.
